This assay concerns HepG2 cells. In words: HepG2 assay: 14C 2-deoxy-D-glucose transport into HepG2 cells. Conditions: Homo sapiens, test compound 100 μM. The format is cell-based. How it is done: For measurement of ^14C 2-deoxy-D-glucose transport into HepG2 cells, cells were seeded in collagen treated 96-well plates (Cytostar-T Plates Perkin Elmer, 40.000 cells/200 μ/well) in medium complete (MEM W/GLUT-I, EARLES (Gibco #41090) /NEAA/PS/10% FCS) and grown for 48 hours. After starvation for 2 hours with MEM W/GLUT-I, EARLES (Gibco #41090)/NEAA/no serum 100 μl/well and washing twice with 200 μL KRB buffer, cells were stimulated in a dose dependent manner by adding 20 μL of test compound dilution 0-750 μM (7.5 times higher concentration than final) or 20 μL of 188 μM Cytochalasin B solution as negative control, to 80 μL KRB buffer and incubated for 30 minutes. After compound stimulation, the transport of ^14C 2-deoxy-D-glucose was started by adding of 50 μL ^14C 2-deoxy-D-glucose solution (250 μM 2-deoxy-D-glucose cold and 15 μM ^14C 2-deoxy-D-glucose 0.13 μCi/well) for 20 minutes. Transport was stopped by adding 50 μL/well 40 μM Cytochalasin B solution. Plates were measured in a 96-well Wallac Microbeta device. The cpm (counts per minute) values were used to determine the % inhibition values for the test compounds within each experiment, which then are averaged over the number of experiments performed.

The inhibition is the relative decrease from the control value, in per cent. A high value points to a strong effect. As to `CN(C)c1cccc2c(S(=O)(=O)NCc3cn([C@H]4C(O)O[C@H](CO)[C@@H](O)[C@@H]4O)nn3)cccc12` (stereo partly drawn) [Example 54, 5-(Dimethylamino)-N-[[1-[(3R,4R,5S,6R)-2,4,5-trihydroxy-6-(hydroxymethyl)tetrahydropyran-3-yl]triazol-4-yl]methyl]naphthalene-1-sulfonamide], the inhibition at 100 µM is 10.5%. `COc1ccccc1N1CCN(CC2=C[C@H](OC(C)=O)[C@@H](OC(C)=O)[C@H](OC(C)=O)O2)CC1` [Example 52, [(2S,3R,4S)-2,3-Diacetoxy-6-[[4-(2-methoxyphenyl)piperazin-1-yl]methyl]-3,4-dihydro-2H-pyran-4-yl] acetate] showed an inhibition at 100 µM of 14.6%. Molecule `COc1cccc(N2CCN(C(=O)[C@H]3OC(O)[C@H](O)[C@@H](O)[C@@H]3O)CC2)c1` (stereo partly drawn) [Example 38, [4-(3-Methoxyphenyl)piperazin-1-yl]-[(2S,3S,4S,5R)-3,4,5,6-tetrahydroxytetrahydropyran-2-yl]methanone] came in with an inhibition at 100 µM of 12.7%. The same measure for `O=C([C@H]1OC(O)[C@H](O)[C@@H](O)[C@@H]1O)N1CCN(C2CCCCC2)CC1` (stereo partly drawn) [Example 29, (4-Cyclohexylpiperazin-1-yl)-[(2S,3S,4S,5R)-3,4,5,6-tetrahydroxytetrahydropyran-2-yl]methanone]: 18.4%; for `Cc1ccc(-c2nc(C)c(-c3cn([C@H]4C(O)O[C@H](CO)[C@@H](O)[C@@H]4O)nn3)c(Cl)n2)cc1` (stereo partly drawn) [Example 61, (3R,4R,5S,6R)-3-[4-[4-Chloro-6-methyl-2-(p-tolyl)pyrimidin-5-yl]triazol-1-yl]-6-(hydroxymethyl)tetrahydropyran-2,4,5-triol]: 9.42%.

`COc1ccccc1N1CCN(C(=O)[C@H]2O[C@@H](OC(C)=O)[C@H](OC(C)=O)[C@@H](OC(C)=O)[C@@H]2OC(C)=O)CC1` [Example 19, [(2S,3R,4S,5S,6S)-2,3,5-Triacetoxy-6-[4-(2-methoxyphenyl)piperazine-1-carbonyl]tetrahydropyran-4-yl] acetate] came in with an inhibition at 100 µM of 6.89%. In turn, `O=[N+]([O-])c1ccc(NCc2cn([C@H]3C(O)O[C@H](CO)[C@@H](O)[C@@H]3O)nn2)c2nonc12` (stereo partly drawn) [Example 63, (3R,4R,5S,6R)-6-(Hydroxymethyl)-3-[4-[[(4-nitro-2,1,3-benzoxadiazol-7-yl)amino]methyl]triazol-1-yl]tetrahydropyran-2,4,5-triol] displayed an inhibition at 100 µM of 37.6%. Under `CC(=O)O[C@@H]1OC(CN2CCN(c3ccccc3)CC2)=C[C@H](OC(C)=O)[C@H]1OC(C)=O` [Example 45, [(2S,3R,4S)-2,3-Diacetoxy-6-[(4-phenylpiperazin-1-yl)methyl]-3,4-dihydro-2H-pyran-4-yl] acetate] stands 29.3%. For `COc1ccc(N2CCN(C(=O)[C@H]3OC(O)[C@H](O)[C@@H](O)[C@@H]3O)CC2)cc1` (stereo partly drawn) [Example 37, [4-(4-Methoxyphenyl)piperazin-1-yl]-[(2S,3S,4S,5R)-3,4,5,6-tetrahydroxytetrahydropyran-2-yl]methanone], at 100 µM the inhibition was 6.88%.

Molecule `O=C([C@H]1OC(O)[C@H](O)[C@@H](O)[C@@H]1O)N1CCN(c2ccc(Br)cc2)CC1` (stereo partly drawn) [Example 36, [4-(4-Bromophenyl)piperazin-1-yl]-[(2S,3S,4S,5R)-3,4,5,6-tetrahydroxytetrahydropyran-2-yl]methanone] showed an inhibition at 100 µM of 20.6%.

`OC[C@H]1OC(O)[C@H](n2cc(-c3ccccc3)nn2)[C@@H](O)[C@@H]1O` (stereo partly drawn) [Example 55, (3R,4R,5S,6R)-6-(Hydroxymethyl)-3-(4-phenyltriazol-1-yl)tetrahydropyran-2,4,5-triol] displayed an inhibition at 100 µM of 12.4%. In the case of `C=CCN1CCN(C(=O)[C@H]2OC(O)[C@H](O)[C@@H](O)[C@@H]2O)CC1` (stereo partly drawn) [Example 28, (4-Allylpiperazin-1-yl)-[(2S,3S,4S,5R)-3,4,5,6-tetrahydroxytetrahydropyran-2-yl]methanone], at 100 µM the inhibition was 9.95%. The same measure for `CCN1CCN(C(=O)[C@H]2O[C@@H](OC(C)=O)[C@H](OC(C)=O)[C@@H](OC(C)=O)[C@@H]2OC(C)=O)CC1` [Example 2, [(2S,3R,4S,5S,6S)-2,3,5-Triacetoxy-6-(4-ethylpiperazine-1-carbonyl)tetrahydropyran-4-yl] acetate]: 6.5%; for `OC[C@H]1OC(O)[C@H](n2cc(CCCc3ccccc3)nn2)[C@@H](O)[C@@H]1O` (stereo partly drawn) [Example 57, (3R,4R,5S,6R)-6-(Hydroxymethyl)-3-[4-(3-phenylpropyl)triazol-1-yl]tetrahydropyran-2,4,5-triol]: 24.1%; for `OC1O[C@H](Cn2cc(-c3ccccc3)nn2)[C@@H](O)[C@H](O)[C@H]1O` (stereo partly drawn) [Example 69, (3R,4S,5S,6R)-6-[(4-Phenyltriazol-1-yl)methyl]tetrahydropyran-2,3,4,5-tetrol]: 6.14%. Under `O=C([C@H]1OC(O)[C@H](O)[C@@H](O)[C@@H]1O)N1CCN(Cc2ccc3c(c2)OCO3)CC1` (stereo partly drawn) [Example 40, [4-(1,3-Benzodioxol-5-ylmethyl)piperazin-1-yl]-[(2S,3S,4S,5R)-3,4,5,6-tetrahydroxytetrahydropyran-2-yl]methanone] stands 10.1%; under `Cc1ccc(-c2cn([C@H]3C(O)O[C@H](CO)[C@@H](O)[C@@H]3O)nn2)cc1` (stereo partly drawn) [Example 56, (3R,4R,5S,6R)-6-(Hydroxymethyl)-3-[4-(p-tolyl)triazol-1-yl]tetrahydropyran-2,4,5-triol], 21.1%; under `OC[C@H]1OC(O)[C@H](n2cc(CCCCl)nn2)[C@@H](O)[C@@H]1O` (stereo partly drawn) [Example 66, (3R,4R,5S,6R)-3-[4-(3-Chloropropyl)triazol-1-yl]-6-(hydroxymethyl)tetrahydropyran-2,4,5-triol], 5.12%.
